The values that follow come from US11976311B2, “Method of adjusting the pH of a pretreatment solution using carbon dioxide useful for integrating saccharification and fermentation of a biomass” (National Technology & Engineering Solutions of Sandia, LLC, priority 2014, dated 2024).

Structures are written as SMILES.

For data set [1], the system named is CTec2+HTec2 (9:1, v/v) commercial enzyme mixtures. The experiment in a line: Compatibility of ILs with commercial enzyme mixtures (enzymatic hydrolysis of microcrystalline cellulose). In kind it is biochemical. The following applies: pH adjusted to 4.5 with hydrochloric acid. On the procedure:
(§1) In another set of pretreatment, switchgrass (100 mg, dry weight) was mixed with 5, 10, and 20% [Ch][Lys]-water solutions at a 10% biomass loading in a 15 ml capped glass pressure tube and pretreated at 140° C. for 1 h. After pretreatment, CTec2+HTec2 (9:1 v/v) mixture was directly added to the pretreatment slurry at 10 mg EP per g starting biomass for saccharification at the same conditions as stated above. In addition, microcrystalline cellulose (MCC) was hydrolyzed by 30 mg/g starting biomass for CTec2+HTec2, spiked with 0-30% IL.

Data set [2] concerns Saccharomyces cerevisiae strain BY4741. The experiment in a line: Toxicity screen of ionic liquids on Saccharomyces cerevisiae strain BY4741. In kind it is cell-based. To be noted: 200 mM IL, SC medium containing 0.2% glucose, pH adjusted to 7 with hydrochloric acid if necessary. The procedure: Both choline, the cation precursor and lysine, the anion precursor are essential nutrients for microbial growth, which are known to be non-toxic and biodegradable. In this study, we carried out toxicity screen of 15 typical ILs including [Ch][Lys], [Ch][OAc] and imidazolium based ILs, [[…]][OAc] on Saccharomyces cerevisiae strain BY4741 at different IL concentrations of 25 and 200 mM (FIG. 2A-2B) in SC medium containing 0.2% glucose with the pH of the IL solution adjusted to 7 using hydrochloric acid if necessary. It aims to test whether the IL, [Ch][Lys] is compatible to commercial enzymes and biofuel producing microbes. As shown in FIG. 2A-2D, the microbial growth was completely jeopardized in a concentration of 200 mM ( 4.3 wt %) for most of the ILs.

Data set [3] concerns commercial enzyme mixtures (CTec2+HTec2). The experiment in a line: Effect of acid-induced pH adjustment of 5% [Ch][Lys] solution on enzymatic hydrolysis of MCC. The following applies: for relative activities of enzymes on MCC: 5% [Ch][Lys] solution, pH adjusted with the named acid. In kind it is biochemical. On the procedure:
To enable a one-pot process, the pH mis-match must be adjusted to lower the pH of pretreatment slurry to a range suitable to enzymes and microbes. We tested a series of mineral and organic acids such as hydrochloric acid, phosphoric acid, sulfuric acid, acetic acid, citric acid, lactic acid, formic acid for the pH adjustment of 5% [Ch][Lys] solution.
as §1

Data set [4] in a line: pH of [Ch][Lys]/water systems and CO2-based pH adjustment. In kind it is physicochemical. The text has this: With the increasing of CO2 pressure from 0 to 0.1 MPa, pH values of all [Ch][Lys]-water solutions decrease sharply from pH of […] to pH of 7-9. Further increasing CO2 pressure led to further pH drop. For 20 wt % [Ch][Lys]-water solution, a pH value of 7.2 was obtained at a CO2 pressure of around 2 MPa. However, only 0.7 MPa CO2 pressure is needed to drop the pH of 10 wt % [Ch][Lys]-water solution to 7.1. While, only 0.1 MPa CO2 pressure is needed to low the pH of the 5 wt % [Ch][Lys]-water solution to around 6.9, similar to or lower than the typical pressure deployed for carbonating a can of Soda. The process is reversible by increasing temperature or bubbling N2, driving out the CO2 and restoring the pH to its original value. In addition, a small fraction of alcohol (e.g. ethylene glycol) could be introduced for further enhancing CO2 absorption efficiency if necessary.^20
All the CO2 absorption experiments were carried out at room temperature in a 25 mL stainless steel Parr reactor (Parr instrument Co., USA) equipped with a magnetic stirrer plate and CO2 cylinder (>99.9% CO2 purity). In a typical procedure, 10 mL a certain concentration of [Ch][Lys] aqueous system was added into the Parr. After being sealed, the Parr was stirred at room temperature, and the absorption pressure was held constant by a backpressure valve. After the absorption was completed, the Parr was cooled to ambient temperature, and the remaining CO2 was removed slowly. Then, the corresponding pH value of the mixture was analyzed by Orion™ 3-Star Benchtop pH Meter. To elucidate the interaction between CO2 with side amine and terminal amine groups of [Ch][Lys] in H2O, we conducted ^13C nuclear magnetic resonance (NMR) analysis of [Ch][Lys] before and after CO2 absorption. Furthermore, two-dimensional (2D) […] heteronuclear single quantum coherence (HSQC) and heteronuclear multiple bond correlation (HMBC) nuclear magnetic resonance (NMR) analysis were also carried out on [Ch][Lys] before and after CO2 absorption.

In the case of `C[N+](C)(C)CCO.NCCCC[C@H](N)C(=O)[O-]` [[Ch][Lys], cholinium lysinate], the “relative activity of enzymes (sugar yield from hydrolysis of microcrystalline cellulose) vs no-IL control” value is recorded as roughly 70% in data set [1] (5% IL) and roughly 50% in data set [1] (10% IL). For the same compound, in data set [2], the microbial growth entry is given as “no retard of microbial growth”. In data set [3] (5% [Ch][Lys] solution without pH adjustment), the enzyme activity result is reported as “very low”. Also, the pH result in data set [4] (5 wt % [Ch][Lys]-water, 0.1 MPa CO2 pressure) was “around 6.9”; in data set [4] (10 wt % [Ch][Lys]-water, 0.7 MPa CO2 pressure), 7.1; in data set [4] (20 wt % [Ch][Lys]-water, CO2 pressure around 2 MPa), 7.2; in data set [4] ([Ch][Lys] or aqueous [Ch][Lys] solution during and after pretreatment) it was 12-14; in data set [4] (all [Ch][Lys]-water solutions (5, 10, 20 wt %), CO2 pressure 0.1 MPa, room temperature) it was 7-9.

As for `O=C(O)CC(O)(CC(=O)O)C(=O)O` [citric acid], the “relative activities of enzymes on MCC” value in data set [3] is “outperforms the other acids”.

For `Cl` [hydrochloric acid], the “relative activities of enzymes on MCC” value in data set [3] is “outperforms the other acids”.

`O=S(=O)(O)O` [sulfuric acid]: the “relative activities of enzymes on MCC” value in data set [3] is on record as “outperforms the other acids”.
